Results from ChEMBL document CHEMBL3045226, “Synthesis and anti-tubercular evaluation of some novel pyrazolo[3,4-d]pyrimidine derivatives” (2012).

Key:
[1] = system: Mycobacterium tuberculosis; experiment: Antimicrobial activity against Mycobacterium tuberculosis H37Rv at < 6.25 ug/ml; assay type: functional
[2] = system: Mycobacterium tuberculosis; experiment: Antimicrobial activity against Mycobacterium tuberculosis H37Rv; assay type: functional

| Compound | inhibition (INH) [1] [%] | MIC [2] [mg/L] |
| --- | --- | --- |
| CC1=NN(c2ccc3c(c2)Nc2ccccc2S3)C2N=C(S)NC(c3ccc(O)cc3)C12 (stereo unspecified) | 68 | > 6.25 |
| CC1=NN(c2ccc3c(c2)Nc2ccccc2S3)C2N=C(S)NC(c3ccccc3Cl)C12 (stereo unspecified) | 91 | < 6.25 |
| CC1=NN(c2ccc3c(c2)Nc2ccccc2S3)C2N=C(S)NC(c3ccc(Cl)cc3)C12 (stereo unspecified) | 74 | > 6.25 |
| CC1=NN(c2ccc3c(c2)Nc2ccccc2S3)C2N=C(S)NC(c3ccccc3[N+](=O)[O-])C12 (stereo unspecified) | 96 | < 6.25 |
| CC1=NN(c2ccc3c(c2)Nc2ccccc2S3)C2N=C(S)NC(c3ccc([N+](=O)[O-])cc3)C12 (stereo unspecified) | 54 | > 6.25 |
| COc1ccc(C2NC(S)=NC3C2C(C)=NN3c2ccc3c(c2)Nc2ccccc2S3)cc1 (stereo unspecified) | 63 | > 6.25 |
| CC1=NN(c2ccc3c(c2)Nc2ccccc2S3)C2N=C(S)NC(c3ccccc3)C12 (stereo unspecified) | 75 | > 6.25 |
| CC1=NN(c2ccc3c(c2)Nc2ccccc2S3)C2N=C(S)NC(c3ccccc3O)C12 (stereo unspecified) | 93 | < 6.25 |
